Test results reported in patent US20070128217A1 (priority 2003, published 2007).

Legend:
[1] = test system: antibodies in sera from SARS patients (sera 1a, 1b, 2, 6, 37, 62, London, SARS-yellow, SARS-green); type: binding, human; design: Binding of serum 6 to linear peptides of protein X1 of SARS-CoV Urbani / Binding of serum 37 to linear peptides of protein X1 of SARS-CoV Urbani / Binding of serum 6 to looped/cyclic peptide (PEPSCAN-ELISA) / Binding of serum 37 to looped/cyclic peptide (PEPSCAN-ELISA) / Binding of serum 37 to looped/cyclic peptides of protein X1 of SARS-CoV Urbani / Binding of serum 6 to linear peptides of protein X2 / Binding of serum 37 to linear peptides of protein X2 / Binding of serum 37 to looped/cyclic peptides of protein X2 of SARS-CoV Urbani / Binding of serum 6 to linear peptides of protein M of SARS-CoV Urbani / Binding of serum 37 to linear peptides of protein M of SARS-CoV Urbani / Binding of serum 6 to looped/cyclic peptides of protein M of SARS-CoV Urbani / Binding of serum 37 to looped/cyclic peptides of protein M of SARS-CoV Urbani / Binding of serum 6 to linear peptides of protein X3 of SARS-CoV Urbani / Binding of serum 37 to linear peptides of protein X3 of SARS-CoV Urbani / Binding of serum 37 to looped/cyclic peptides of protein X3 of SARS-CoV Urbani / Binding of serum 6 to linear peptides of protein X4 of SARS-CoV Urbani / Binding of serum 37 to linear peptides of protein X4 of SARS-CoV Urbani / Binding of serum 37 to looped/cyclic peptides of protein X4 of SARS-CoV Urbani / Binding of serum 6 to linear peptides of protein X5 of SARS-CoV Urbani / Binding of serum 37 to linear peptides of protein X5 of SARS-CoV Urbani / Binding of serum 37 to looped/cyclic peptides of protein X5 of SARS-CoV Urbani / Binding of serum 6 to linear peptides of protein N of SARS-CoV Urbani / Binding of serum 37 to linear peptides of protein N of SARS-CoV Urbani / Binding of serum 6 to linear peptide (PEPSCAN-ELISA) / Binding of serum 1a to looped/cyclic peptides of protein N of SARS-CoV Urbani / Binding of serum 1b to looped/cyclic peptides of protein N of SARS-CoV Urbani / Binding of serum 2 to looped/cyclic peptides of protein N of SARS-CoV Urbani / Binding of serum 6 to looped/cyclic peptides of protein N of SARS-CoV Urbani / Binding of serum 37 to looped/cyclic peptides of protein N of SARS-CoV Urbani / Binding of serum 62 to looped/cyclic peptides of protein N of SARS-CoV Urbani / Binding of serum London to looped/cyclic peptides of protein N of SARS-CoV Urbani / Binding of serum SARS-green to looped/cyclic peptides of protein N of SARS-CoV Urbani: unit not given here
[2] = test system: control sera (pooled serum of ten healthy LUMC hospital workers; commercial negative donor pooled serum from the Dutch bloodbank); type: binding, human; design: Binding of Control serum LUMC to linear peptides / Binding of Control serum Blood-bank to linear peptides / Binding of Control serum LUMC to looped peptides / Binding of Control Serum Blood-Bank to Looped peptides / Binding of Control serum LUMC to linear peptides of the protein M of SARS-CoV Urbani / Binding of Control serum Blood-bank to linear peptides of the protein M of SARS-CoV Urbani / Binding of Control serum LUMC to looped peptides of the protein M of SARS-CoV Urbani / Binding of Control Serum Blood-Bank to Looped peptides of the protein M of SARS-CoV Urbani: unit not given here
[3] = test system: rabbit serum obtained by immunizing a rabbit with the SARS-CoV strain Frankfurt 1; type: binding; design: Binding of a rabbit serum to linear peptides / Binding of a rabbit serum to looped peptides / Rabbit serum linear peptides / Rabbit serum looped peptides / Binding of a rabbit serum to linear peptides of protein N of SARS-CoV Urbani (Rabbit serum linear peptides) / Binding of a rabbit serum to looped/cyclic peptides of protein N of SARS-CoV Urbani (Rabbit serum looped peptides): unit not given here
[4] = test system: recombinant human anti-SARS-CoV antibody 03-018; type: binding; design: Binding of antibody 03-018 to linear peptides of the N protein of SARS-CoV Urbani / Binding of antibody 03-018 to looped/cyclic peptides of the N protein of SARS-CoV Urbani: unit not given here

| Sequence | Binding of serum 1a to linear peptides of protein N of SARS-CoV Urbani [1] | Binding of serum 1a to looped/cyclic peptides of protein N of SARS-CoV Urbani [1] | Binding of serum 1b to linear peptides of protein N of SARS-CoV Urbani [1] | Binding of serum 1b to looped/cyclic peptides of protein N of SARS-CoV Urbani [1] | Binding of serum 2 to linear peptides of protein N of SARS-CoV Urbani [1] | Binding of serum 2 to looped/cyclic peptides of protein N of SARS-CoV Urbani [1] | Binding of serum 6 to linear peptides of protein N of SARS-CoV Urbani [1] | Binding of serum 6 to looped/cyclic peptides of protein N of SARS-CoV Urbani [1] | Binding of serum 37 to linear peptides of protein N of SARS-CoV Urbani [1] | Binding of serum 37 to looped/cyclic peptides of protein N of SARS-CoV Urbani [1] | Binding of serum 62 to linear peptides of protein N of SARS-CoV Urbani [1] | Binding of serum 62 to looped/cyclic peptides of protein N of SARS-CoV Urbani [1] | Binding of serum London to linear peptides of protein N of SARS-CoV Urbani [1] | Binding of serum London to looped/cyclic peptides of protein N of SARS-CoV Urbani [1] | Binding of serum SARS-green to looped/cyclic peptides of protein N of SARS-CoV Urbani [1] | Binding of serum SARS-yellow to looped/cyclic peptides of protein N of SARS-CoV Urbani [1] | Binding of a rabbit serum to linear peptides of protein N of SARS-CoV Urbani (Rabbit serum linear peptides) [3] | Binding of a rabbit serum to looped/cyclic peptides of protein N of SARS-CoV Urbani (Rabbit serum looped peptides) [3] | Binding of antibody 03-018 to linear peptides of the N protein of SARS-CoV Urbani [4] | Binding of antibody 03-018 to looped/cyclic peptides of the N protein of SARS-CoV Urbani [4] | also measured |
| --- | --- | --- | --- | --- | --- | --- | --- | --- | --- | --- | --- | --- | --- | --- | --- | --- | --- | --- | --- | --- | --- |
| RFPRGQGVPINTNSG | 0.2 | 0.3 | 0.1 | 0.2 | 0.3 | 0.4 | 0.1 | 0.2 | 0.7 | 0.5 | 0.7 | 0.4 | 0.5 | 0.3 | 0.5 | 0.4 | 0.1 | 0.5 | 0.1 | 0.2 | Binding of serum SARS-green to linear peptides of protein N of SARS-CoV Urbani [1]: 0.4; Binding of serum SARS-yellow to linear peptides of protein N of SARS-CoV Urbani [1]: 0.6; Binding of Control Serum Blood-Bank to Looped peptides [2]: 0.6; Binding of Control serum Blood-bank to linear peptides [2]: 0.8; Binding of Control serum LUMC to linear peptides [2]: 0.6; Binding of Control serum LUMC to looped peptides [2]: 0.5 |
| RGNSPARMASGGGET | – | 0.4 | – | 0.3 | – | 0.4 | – | 0.3 | – | 0.4 | – | 0.4 | – | 0.8 | 0.1 | 0.1 | 0.1 | 0.2 | 0.1 | 0.2 | Binding of serum 1a to linear peptide (PEPSCAN-ELISA) [1]: 0.3; Binding of serum 1b to linear peptide (PEPSCAN-ELISA) [1]: 0.1; Binding of serum 2 to linear peptide (PEPSCAN-ELISA) [1]: 0.2; Binding of serum 6 to linear peptide (PEPSCAN-ELISA) [1]: 0.2; Binding of serum 37 to linear peptide (PEPSCAN-ELISA) [1]: 0.5; Binding of serum 62 to linear peptide (PEPSCAN-ELISA) [1]: 0.5; Binding of serum London to linear peptide (PEPSCAN-ELISA) [1]: 0.5; Binding of serum SARS-green to linear peptide (PEPSCAN-ELISA) [1]: 0.1; Binding of serum SARS-yellow to linear peptide (PEPSCAN-ELISA) [1]: 0.5; Binding of Control Serum Blood-Bank to Looped peptides [2]: 0.6; Binding of Control serum Blood-bank to linear peptides [2]: 0.8; Binding of Control serum LUMC to linear peptides [2]: 0.7; Binding of Control serum LUMC to looped peptides [2]: 0.5 |
| RIGMEVTPSGTWLTY | 0.2 | 0.4 | 0.1 | 0.2 | 0.1 | 0.5 | 0.1 | 0.3 | 0.4 | 0.7 | 0.4 | 0.8 | 0.3 | 0.6 | 0.5 | 0.5 | 0.0 | 0.5 | 0.1 | 0.2 | Binding of serum SARS-green to linear peptides of protein N of SARS-CoV Urbani [1]: 0.5; Binding of serum SARS-yellow to linear peptides of protein N of SARS-CoV Urbani [1]: 0.9; Control Serum Blood-Bank Looped peptides [2]: 0.8; Control serum Blood-bank linear peptides [2]: 0.5; Control serum LUMC linear peptides [2]: 0.5; Control serum LUMC looped peptides [2]: 0.7 |
